# Reference: ChEMBL document CHEMBL4396930, “Identification of new dual FABP4/5 inhibitors based on a naphthalene-1-sulfonamide FABP4 inhibitor” (Bioorg Med Chem, 2019)
# Columns and labels:
# [1] = tested on: 3T3-L1; experiment: Cytotoxicity against mouse 3T3L1 cells assessed as reduction in cell viability at 30 to 60 uM incubated for 24 hrs by MTT assay; type: cell-based; conditions: 3t3-l1, 24 h
# [2] = tested on: RAW264.7; experiment: Cytotoxicity against mouse RAW264.7 cells assessed as reduction in cell viability at 30 to 60 uM incubated for 24 hrs by MTT assay; type: cell-based; conditions: raw264.7, 24 h
# [3] = molecular target: Fatty acid-binding protein, adipocyte (Homo sapiens, UniProt P15090); experiment: Displacement of 1,8-ANS from human recombinant full length N-terminal his-tagged FABP4 expressed in Escherichia coli BL21 (DE3) incubated for 3 mins by fluorescence based assay
# [4] = tested on: RAW264.7; experiment: Antiinflammatory activity against mouse RAW264.7 cells assessed as inhibition of LPS-induced MCP-1 gene expression level at 30 uM preincubated for 12 hrs followed by LPS addition and measured after 6 hrs by qRT PCR analysis relative to control; type: functional
# [5] = molecular target: Fatty acid-binding protein 5 (Homo sapiens, UniProt Q01469); experiment: Displacement of 1,8-ANS from human recombinant full length N-terminal his-tagged FABP5 expressed in Escherichia coli BL21 (DE3) incubated for 3 mins by fluorescence based assay
# [6] = molecular target: Fatty acid-binding protein, heart (Homo sapiens, UniProt P05413); experiment: Displacement of 1,8-ANS from FABP3 (unknown origin) incubated for 3 mins by fluorescence based assay
# [7] = tested on: RAW264.7; experiment: Antiinflammatory activity against mouse RAW264.7 cells assessed as inhibition of LPS-induced TNFalpha gene expression level at 30 uM preincubated for 12 hrs followed by LPS addition and measured after 6 hrs by qRT PCR analysis relative to control; type: functional
# Sequence of Fatty acid-binding protein, adipocyte (P15090 whole entry): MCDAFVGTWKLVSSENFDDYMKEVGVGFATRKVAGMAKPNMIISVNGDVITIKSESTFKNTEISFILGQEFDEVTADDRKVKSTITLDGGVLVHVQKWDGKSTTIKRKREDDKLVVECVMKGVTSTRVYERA
# Sequence of Fatty acid-binding protein 5 (Q01469 whole entry): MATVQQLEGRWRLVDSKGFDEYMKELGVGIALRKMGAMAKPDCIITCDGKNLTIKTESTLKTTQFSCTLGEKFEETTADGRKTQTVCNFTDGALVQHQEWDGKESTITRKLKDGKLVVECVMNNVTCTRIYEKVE
# Sequence of Fatty acid-binding protein, heart (P05413 whole entry): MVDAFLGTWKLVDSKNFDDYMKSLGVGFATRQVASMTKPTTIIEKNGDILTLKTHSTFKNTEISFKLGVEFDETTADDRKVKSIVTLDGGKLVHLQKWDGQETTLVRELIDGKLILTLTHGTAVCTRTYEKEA
SMILES,IC50 [3] [µM],IC50 [5] [µM],other results
COc1ccc(S(=O)(=O)Nc2ccc(F)c(C(=O)O)c2)c2ccccc12,–,–,Activity [1]: Non-Toxic; Activity [2]: Non-Toxic
COc1c(-c2cccc(N)c2)cc(S(=O)(=O)Nc2ccc(F)c(C(=O)O)c2)c2ccccc12,1.7,–,–
COc1c(-c2ccc(F)c(F)c2)cc(S(=O)(=O)Nc2ccc(F)c(C(=O)O)c2)c2ccccc12,2.98,–,–
COc1c(-c2cccc(O)c2)cc(S(=O)(=O)Nc2ccc(F)c(C(=O)O)c2)c2ccccc12,1.89,–,–
O=C(O)c1cc(NS(=O)(=O)c2ccc(OCCC3CCCCC3)c3ccccc23)ccc1F,1.97,4.85,inhibition at 30 µM [4]: 29%; IC50 [6]: 55.6 µM; inhibition at 30 µM [7]: 24%; Activity [1]: Non-Toxic; Activity [2]: Non-Toxic
O=C(O)c1cc(NS(=O)(=O)c2ccc(OCCCC3CCCCC3)c3ccccc23)ccc1F,3.59,3.63,–
CCCCCCCOc1ccc(S(=O)(=O)Nc2ccc(F)c(C(=O)O)c2)c2ccccc12,2.3,2.76,–
CCCCCCOc1ccc(S(=O)(=O)Nc2ccc(F)c(C(=O)O)c2)c2ccccc12,2.43,4.17,–
O=C(O)c1cc(NS(=O)(=O)c2ccc(OC3CCCCCC3)c3ccccc23)ccc1F,2.37,3.3,–
O=C(O)c1cc(NS(=O)(=O)c2ccc(OCC34CC5CC(CC(C5)C3)C4)c3ccccc23)ccc1F,14.8,4.61,–
COc1c(-c2ccc(O)cc2)cc(S(=O)(=O)Nc2ccc(F)c(C(=O)O)c2)c2ccccc12,1.19,–,–
CCCCCCCCOc1ccc(S(=O)(=O)Nc2ccc(F)c(C(=O)O)c2)c2ccccc12,4.04,4.19,–
CCCCCOc1ccc(S(=O)(=O)Nc2ccc(F)c(C(=O)O)c2)c2ccccc12,2.99,8.32,–
CCOc1ccc(S(=O)(=O)Nc2ccc(F)c(C(=O)O)c2)c2ccccc12,2.64,–,–
O=C(O)c1cc(NS(=O)(=O)c2ccc(OC3CCCCC3)c3ccccc23)ccc1F,2.2,7.66,–
COc1c(-c2ccc(F)c(Cl)c2)cc(S(=O)(=O)Nc2ccc(F)c(C(=O)O)c2)c2ccccc12,1.58,–,inhibition at 30 µM [4]: 32%; IC50 [6]: 46.8 µM; inhibition at 30 µM [7]: 23%; Activity [1]: Non-Toxic; Activity [2]: Non-Toxic
COc1c(-c2ccc(F)cc2)cc(S(=O)(=O)Nc2ccc(F)c(C(=O)O)c2)c2ccccc12,1.74,10,–
COc1c(-c2ccoc2)cc(S(=O)(=O)Nc2ccc(F)c(C(=O)O)c2)c2ccccc12,3.53,–,–
COc1c(-c2ccc(Cl)c(Cl)c2)cc(S(=O)(=O)Nc2ccc(F)c(C(=O)O)c2)c2ccccc12,4.38,–,–
CCCCCCCCCCOc1ccc(S(=O)(=O)Nc2ccc(F)c(C(=O)O)c2)c2ccccc12,4.73,4.48,–
CCCCCCCCCCCCOc1ccc(S(=O)(=O)Nc2ccc(F)c(C(=O)O)c2)c2ccccc12,24.8,–,–
O=C(O)c1cc(NS(=O)(=O)c2ccc(OCc3ccccc3)c3ccccc23)ccc1F,3.15,–,–
COc1c(-c2ccccc2)cc(S(=O)(=O)Nc2ccc(F)c(C(=O)O)c2)c2ccccc12,1.19,–,–
Cc1c(Cl)cccc1OCc1cc(=O)n2nc(-c3ccccc3)nc2[nH]1,–,–,Activity [1]: Toxic; Activity [2]: Toxic
COc1c(-c2ccncc2)cc(S(=O)(=O)Nc2ccc(F)c(C(=O)O)c2)c2ccccc12,3.54,–,–
O=C(O)c1cc(NS(=O)(=O)c2ccc(OCC3CCCCC3)c3ccccc23)ccc1F,2.41,8.12,–
